Like-named read-outs stand apart in the source and are kept apart here.
Assays:
His-tagged HIV-1 RT WT = target: T1, His-tagged HIV-1 RT WT (Human immunodeficiency virus type 1 group M subtype B, UniProt P03367); assay: Surface plasmon resonance, WT RT; format: binding
T1 construct: The p66/p51 HIV-1 RT heterodimer engineered with a N-terminal histidine tag; His tag (histidine tag) (N); made in house; host or cells: Escherichia coli strain M15 (vector pRT6H-PR)
Protocol: (§1) Compound binding to recombinant HIV-1 RT was measured by surface plasmon resonance (SPR). SPR is an optical biosensor detection method that involves passing an analyte (often a fragment) in a buffer solution over a gold surface chip with an immobilized protein (RT enzyme) and detecting the change in plasmon resonance angle which is dependent on the refractive index of the medium near the surface. As compounds bind to the target protein, the refractive index changes proportionally to the extent of binding. This can then be used to measure the association and dissociation kinetics of binding as well as the compound’s affinity for binding.
(§2) SPR assays were performed on a Biacore S200 (GE Healthcare). His-tagged RT (WT, K103N, Y181C or K103N/Y181C) was immobilized on the surface of a Biacore compatible NIHC 1500M (Xantec) chip according to manufacturer’s instructions. Following 3 injections 300 s each of 0.5 M EDTA, the chip surface was activated with a 120 s injection of 5 mM NiCl2 followed by a 2100 s injection of 130 nM RT. The final immobilization level of RT was typically 14,000–27,000 RU. SPR experiments were carried out at 25 °C using a flow rate of 50 µL/min in running buffer. The running buffer was 1.053 × (HBS pH 7.4 + 50 µM EDTA + 0.005% Tween-20). Compounds were provided as 200 mM stocks and diluted in running buffer to obtain the concentrations required for dose-response studies (0, 6.25, 12.5, 25, 50, 100 and 200 µM). Raw sensorgram data were analyzed using Biacore S200 Evaluation Software. Dose-response determinations were evaluated using a 1:1 binding model. KD values were determined by Biacore S200 Evaluation Software Version 1.0. assuming 1:1 binding. For compounds approaching saturation, Rmax was floated. For compounds with insufficient curvature, Rmax was fixed based on a control. Errors were determined as the standard error in the dose-response fit, as calculated by Biacore S200 Evaluation Software.

[1] = tested on: HIV-1 RT (WT RT construct RT35A); details: assay detects inhibition of both DNA polymerase and RNase H activity; read-out: IC50 (Bauman et al.); cited from earlier work
[2] = target: T2, HIV-1 RT K103N/Y181C mutant (Human immunodeficiency virus type 1 group M subtype B, UniProt P03367, K702N/Y780C); assay: DDDP activity assay, K103N/Y181C RT mutant; format: biochemical
T2 construct: The p66/p51 HIV-1 RT heterodimer engineered with a N-terminal histidine tag; His tag (histidine tag) (N); made in house; host or cells: Escherichia coli strain M15 (vector pRT6H-PR)
Protocol: (§3) The inhibitory activity of all compounds was evaluated in vitro in assays that measure the DNA-dependent DNA polymerase (DDDP) activity of HIV-1 RT. Compounds were tested against recombinant WT and drug-resistant HIV-1 RT mutants (K103N, Y181C or K103N/Y181C). […] The IC50 value of nevirapine was determined in parallel to control for the performance of the assay. […] These RT mutations either reduce the rate of entry of NNRTIs to the binding pocket (K103N) or remove aromatic interactions that favor binding (Y181C). Initially, compound IC50 values were determined in an assay that quantifies DDDP activity mediated by HIV-1 RT using a radiolabeled ^33PdTTP substrate and more recently using a nonradioactive PicoGreen-based spectrophotometric assay.
(§4) Recombinant HIV-1 RT: The p66/p51 HIV-1 RT heterodimer engineered with a N-terminal histidine tag was expressed from the pRT6H-PR vector (provided by Nicolas Sluis-Cremer) which is based on pRT6H-PROT [37], except that the RT coding region is derived from the infectious molecular clone xxLAI [38]. This xxLAI clone contains the HIV-1LAI backbone and is engineered with silent mutations introducing Xma I and Xba I sites in the RT coding region at nucleotide positions 40–45 and 1470 to 1475, respectively. pRT6H-PR expressing the NNRTI drug-resistant mutations K103N, Y181C and K103N/Y181C were generated by subcloning Xma I/Xba I fragments in xxLAI harboring the desired NNRTI mutations (Giacobbi NS and Sluis-Cremer 2017 AAC) into the corresponding restriction sites in the RT coding region of p6HRT-PR. RT was expressed in Escherichia coli strain M15 and purified using Ni-NTA chromatography as previously described. RT concentrations were determined spectrophotometrically at 280 nm using an extinction coefficient (e280) of 260, 450 M^−1 cm^−1.
(§5) Nevirapine was included in assays as a positive control for inhibiting RT polymerase activity. The DDDP assay was performed by first adding 25 ng of HIV-1 RT to test compound in 96-well plates followed by initiating RT polymerase activity by adding 200 ng of activated calf thymus (ACT) DNA (Sigma Aldrich), 0.2 µCi ^33P-α-dTTP (Perkin Elmer), 50 mM Tris-HCl pH 7.8 50 mM KCl, […], 50 µM dNTP mix (Bioline), 0.1 mg/mL bovine serum albumin (New England Biolabs), 0.01% IGEPAL (Sigma) and 1 mM dithiothreitol. Reactions contained 2.5% dimethyl sulfoxide (DMSO). Following incubation at 37 °C for 10 min, samples from duplicate wells were applied to Whatman DE81 ion-exchange paper (GE Healthcare); dried membranes were washed in 2X saline-sodium citrate (SSC) buffer; and incorporated counts were quantified using an FLP-2000 phosphorimager (Fujifilm) or Typhoon Trio Phosphorimager (GE Healthcare) as published. Dose–response curves were generated using PRISM GraphPad version 8 by plotting the log transformed drug concentrations against percentage inhibition of DDDP activity compared to the no drug control using non-linear regression analysis.
(§6) Non-radioactive DDDP Assay: DDDP assays were also performed using a PicoGreen based spectrophotometric assay to detect double-stranded DNA synthesized by recombinant HIV-1 RT [15]. Assays were performed as described for the […] DDDP assay except that instead of ACT, the reaction contained 40 nM of a template/primer comprising a 200 nt DNA template (5′-[…] […]-3′) annealed to a 18 nucleotide DNA primer (5′-[…]-3′), 50 mM Tris-HCl pH 7.8, 50 mM KCl, 10 mM MgCl2 and 50 µM dNTP mix.

[3] = target: T3, His-tagged HIV-1 RT K103N (Human immunodeficiency virus type 1 group M subtype B, UniProt P03367, K702N); assay: Surface plasmon resonance, K103N RT; details: ± standard error of dose–response fit, n = 1; NB = no binding observed; read-out: SPR—KD, K103N
T3 construct: The p66/p51 HIV-1 RT heterodimer engineered with a N-terminal histidine tag; His tag (histidine tag) (N); made in house; host or cells: Escherichia coli strain M15 (vector pRT6H-PR)
Protocol: as §1, §2

[4] = target: T4, His-tagged HIV-1 RT Y181C (Human immunodeficiency virus type 1 group M subtype B, UniProt P03367, Y780C); assay: Surface plasmon resonance, Y181C RT; details: ± standard error of dose–response fit, n = 1; NB = no binding observed; read-out: SPR—KD, Y181C
T4 construct: The p66/p51 HIV-1 RT heterodimer engineered with a N-terminal histidine tag; His tag (histidine tag) (N); made in house; host or cells: Escherichia coli strain M15 (vector pRT6H-PR)
Protocol: as §1
(§7) SPR assays were performed on a Biacore S200 (GE Healthcare). His-tagged RT (WT, K103N, Y181C or K103N/Y181C) was immobilized on the surface of a Biacore compatible NIHC 1500M (Xantec) chip according to manufacturer’s instructions. Following 3 injections 300 s each of 0.5 M EDTA, the chip surface was activated with a 120 s injection of 5 mM NiCl2 followed by a 2100 s injection of 130 nM RT. […] Raw sensorgram data were analyzed using Biacore S200 Evaluation Software. Dose-response determinations were evaluated using a 1:1 binding model. KD values were determined by Biacore S200 Evaluation Software Version 1.0. assuming 1:1 binding. […] Errors were determined as the standard error in the dose-response fit, as calculated by Biacore S200 Evaluation Software.

recombinant WT HIV-1 RT = target: T5, recombinant WT HIV-1 RT (Human immunodeficiency virus type 1 group M subtype B, UniProt P03367); assay: biochemical; details: for IC50: RT Inhibition—IC50 ± SEM, WT, WT RT DDDP activity, PicoGreen or 33P radiolabeled assay, value not marked as PicoGreen, n ≥ 2; for Ligand efficiency (LE): binding to WT RT, LE = −1.4(logIC50)/N
T5 construct: The p66/p51 HIV-1 RT heterodimer engineered with a N-terminal histidine tag; His tag (histidine tag) (N); made in house; host or cells: Escherichia coli strain M15 (vector pRT6H-PR)
Protocol: as §3, §4, §5, §6

HIV-1 RT K103N mutant = target: T6, HIV-1 RT K103N mutant (Human immunodeficiency virus type 1 group M subtype B, UniProt P03367, K702N); assay: DDDP activity assay, K103N RT mutant; format: biochemical; details: PicoGreen or 33P radiolabeled assay, n ≥ 2, read-out: RT Inhibition—IC50 ± SEM, K103N
T6 construct: The p66/p51 HIV-1 RT heterodimer engineered with a N-terminal histidine tag; His tag (histidine tag) (N); made in house; host or cells: Escherichia coli strain M15 (vector pRT6H-PR)
Protocol: as §3
Recombinant HIV-1 RT: The p66/p51 HIV-1 RT heterodimer engineered with a N-terminal histidine tag was expressed from the pRT6H-PR vector (provided by Nicolas Sluis-Cremer) which is based on pRT6H-PROT [37], except that the RT coding region is derived from the infectious molecular clone xxLAI [38]. […] RT concentrations were determined spectrophotometrically at 280 nm using an extinction coefficient (e280) of 260, 450 M^−1 cm^−1. […]

HIV-1 RT Y181C mutant = target: T7, HIV-1 RT Y181C mutant (Human immunodeficiency virus type 1 group M subtype B, UniProt P03367, Y780C); assay: DDDP activity assay, Y181C RT mutant; format: biochemical; details: PicoGreen or 33P radiolabeled assay, n ≥ 2, read-out: RT Inhibition—IC50 ± SEM, Y181C
T7 construct: The p66/p51 HIV-1 RT heterodimer engineered with a N-terminal histidine tag; His tag (histidine tag) (N); made in house; host or cells: Escherichia coli strain M15 (vector pRT6H-PR)
Protocol: as §3
Recombinant HIV-1 RT: The p66/p51 HIV-1 RT heterodimer engineered with a N-terminal histidine tag was expressed from the pRT6H-PR vector (provided by Nicolas Sluis-Cremer) which is based on pRT6H-PROT [37], except that the RT coding region is derived from the infectious molecular clone xxLAI [38]. […] RT concentrations were determined spectrophotometrically at 280 nm using an extinction coefficient (e280) of 260, 450 M^−1 cm^−1.
Nevirapine was included in assays as a positive control for inhibiting RT polymerase activity. […] Following incubation at 37 °C for 10 min, samples from duplicate wells were applied to Whatman DE81 ion-exchange paper (GE Healthcare); dried membranes were washed in 2X saline-sodium citrate (SSC) buffer; and incorporated counts were quantified using an FLP-2000 phosphorimager (Fujifilm) or Typhoon Trio Phosphorimager (GE Healthcare) as published. […]

[5] = tested on: NNRTI-binding pocket (NNIBP) of HIV-1 RT; parameters: method as in PMID 24002095; details: cited from earlier work
[6] = target: T8, His-tagged HIV-1 RT K103N/Y181C (Human immunodeficiency virus type 1 group M subtype B, UniProt P03367, K702N/Y780C); assay: Surface plasmon resonance, K103N/Y181C RT; format: binding
T8 construct: The p66/p51 HIV-1 RT heterodimer engineered with a N-terminal histidine tag; His tag (histidine tag) (N); made in house; host or cells: Escherichia coli strain M15 (vector pRT6H-PR)
Protocol: as §1, §7

[7] = tested on: His-tagged HIV-1 RT K103N/Y181C; assay: Surface plasmon resonance, K103N/Y181C RT; format: binding; details: SPR
Protocol: as §1, §7

[8] = tested on: HIV-1 RT K103N/Y181C mutant; assay: DDDP activity assay, K103N/Y181C RT mutant; format: biochemical; details: nonsignificant
Protocol: as §3, §4, §5, §6

Row | Compound | IC50 [2] | Kd (His-tagged HIV-1 RT WT) | Kd [3] | Kd [4] | IC50 (recombinant WT HIV-1 RT) | Ligand efficiency (LE) (recombinant WT HIV-1 RT) | also measured
1 | CCOC(=O)c1cnn2ccccc12 [compound B-1, ethyl pyrazolo[1,5-a]pyridine-3-carboxylate, reference compound] | 208 µM |  |  |  |  |  | Kd (His-tagged HIV-1 RT WT; read-out: SPR—KD, WT, ± standard error of dose–response fit, n = 1, NB = no binding observed): > 200 µM; IC50 [1]: 350 µM
2 | CCOC(=O)c1cnn2cccc(Br)c12 [compound 6, Ethyl 4-Bromopyrazolo[1,5-a]pyridine-3-carboxylate] |  | 598 ± 15 µM | 1400 ± 45 µM | 1190 ± 47 µM | 159 ± 29 µM | 0.35 kcal/mol/HA | IC50 (HIV-1 RT K103N mutant): 846 ± 42 µM; IC50 (HIV-1 RT Y181C mutant): 850 ± 187 µM
3 | CCOC(=O)c1cnn2ccc(N)cc12 [compound 8, Ethyl 5-Aminopyrazolo[1,5-a]pyridine-3-carboxylate] |  | 522 ± 27 µM | 621 ± 36 µM | 610 ± 32 µM | > 1000 µM |  | 
4 | Cc1cc(/C=C/C#N)cc(C)c1Nc1ccnc(Nc2ccc(C#N)cc2)n1 [Rilpivirine, rilpivirine] |  |  |  |  |  |  | affinity for the NNIBP [5]: 0.73 nM
5 | CCOC(=O)c1cnn2cccc(C#CC3CC3)c12 [compound 27, Ethyl 4-(Cyclopropylethynyl)pyrazolo[1,5-a]pyridine-3-carboxylate] | 34 ± 8 µM | 79 ± 7 µM | 187 ± 15 µM |  | 11 ± 1 µM | 0.37 kcal/mol/HA | fold improvement on parent compound B-1 (recombinant WT HIV-1 RT; IC50 vs B-1 IC50 >1000 μM in the radioactive RT assay): > 20 fold; Kd [6]: 187 ± 15 µM; fold decrease in binding, K103N/Y181C double mutant vs WT [7]: 2–3 fold; fold decrease in susceptibility, K103N/Y181C mutant compared to WT RT [8]: 3.0 fold
